Test results: PubChem BioAssay AID1963429 (Molecular Pharmacology Branch, DTP, NCI, 2024)

Tested on: 126254-015-R-J1-PDC complex spheroid growth, % test/control
Experiment: Anticancer human tumor 126254-015-R-J1-PDC patient-derived soft tissue sarcoma cell line growth inhibition [Asc]
Settings: for IC50: curve of first compound; for viability, T/C: stronger effect = lower value
How it was run: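 Complex spheroids combining tumor cells with HUVEC endothelial cells and human MSCs, at 37 degrees C, 5% CO2; agents tested alone or combined, half-log dilutions from at or near clinical Cmax, or 10 microM if Cmax unknown.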

[1] = second compound 0.03 µM, first compound 0.00316 µM
[2] = second compound 0.03 µM, first compound 0.01 µM
[3] = second compound 0.03 µM, first compound 0.0316 µM
[4] = second compound 0.03 µM, first compound 0.1 µM
[5] = second compound 0.0949 µM, first compound 0.00316 µM
[6] = second compound 0.0949 µM, first compound 0.01 µM
[7] = second compound 0.0949 µM, first compound 0.0316 µM
[8] = second compound 0.0949 µM, first compound 0.1 µM
[9] = second compound 0.3 µM, first compound 0.00316 µM
[10] = second compound 0.3 µM, first compound 0.01 µM
[11] = second compound 0.3 µM, first compound 0.0316 µM
[12] = second compound 0.3 µM, first compound 0.1 µM
[13] = second compound 0.949 µM, first compound 0.00316 µM
[14] = second compound 0.949 µM, first compound 0.01 µM
[15] = second compound 0.949 µM, first compound 0.0316 µM
[16] = second compound 0.949 µM, first compound 0.1 µM
[17] = second compound 3 µM, first compound 0.00316 µM
[18] = second compound 3 µM, first compound 0.01 µM
[19] = second compound 3 µM, first compound 0.0316 µM
[20] = second compound 3 µM, first compound 0.1 µM
[21] = second compound 0.01 µM, first compound 0.00316 µM
[22] = second compound 0.01 µM, first compound 0.01 µM
[23] = second compound 0.01 µM, first compound 0.0316 µM
[24] = second compound 0.01 µM, first compound 0.1 µM
[25] = second compound 0.0316 µM, first compound 0.00316 µM
[26] = second compound 0.0316 µM, first compound 0.01 µM
[27] = second compound 0.0316 µM, first compound 0.0316 µM
[28] = second compound 0.0316 µM, first compound 0.1 µM
[29] = second compound 0.1 µM, first compound 0.00316 µM
[30] = second compound 0.1 µM, first compound 0.01 µM
[31] = second compound 0.1 µM, first compound 0.0316 µM
[32] = second compound 0.1 µM, first compound 0.1 µM
[33] = second compound 0.316 µM, first compound 0.00316 µM
[34] = second compound 0.316 µM, first compound 0.01 µM
[35] = second compound 0.316 µM, first compound 0.0316 µM
[36] = second compound 0.316 µM, first compound 0.1 µM
[37] = second compound 1 µM, first compound 0.00316 µM
[38] = second compound 1 µM, first compound 0.01 µM
[39] = second compound 1 µM, first compound 0.0316 µM
[40] = second compound 1 µM, first compound 0.1 µM
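Further: spheroids exposed to compound for seven days.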
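Wherever viability, T/C is given: 100% = DMSO vehicle control wells.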

`Cn1ncnc1[C@H]1c2n[nH]c(=O)c3cc(F)cc(c23)N[C@@H]1c1ccc(F)cc1` + CCN1C(C(=O)NC23CCC(C(=O)O)(CC2)CC3)C(c2cccc(Cl)c2F)C2(C(=O)Nc3cc(Cl)ccc32)C12CCCCC2 was tested, and the IC50 (second compound 0.03 µM) was > 100 nM, the IC50 (second compound 0.0949 µM) was > 100 nM and the IC50 (second compound 0.3 µM) was > 100 nM. For the same compound, the IC50 (second compound 0.949 µM) was > 100 nM, the IC50 (second compound 3 µM) was > 100 nM and the viability, T/C (second compound 0.03 µM, first compound 0.000316 µM) was 88.6%. The viability, T/C (second compound 0.03 µM, first compound 0.001 µM) was 108%, the viability, T/C [1] was 88% and the viability, T/C [2] was 96.5%. For the same compound, the viability, T/C [3] was 83.9%, the viability, T/C [4] was 75.4% and the viability, T/C (second compound 0.0949 µM, first compound 0.000316 µM) was 101%. It also gave a viability, T/C (second compound 0.0949 µM, first compound 0.001 µM) of 102%, a viability, T/C [5] of 88.4% and a viability, T/C [6] of 78.2%. For the same compound, the viability, T/C [7] was 84.7%, the viability, T/C [8] was 68% and the viability, T/C (second compound 0.3 µM, first compound 0.000316 µM) was 97%. The viability, T/C (second compound 0.3 µM, first compound 0.001 µM) was 111%, the viability, T/C [9] was 104% and the viability, T/C [10] was 81.7%. For the same compound, the viability, T/C [11] was 80.7%, the viability, T/C [12] was 75.2% and the viability, T/C (second compound 0.949 µM, first compound 0.000316 µM) was 95.3%. The viability, T/C (second compound 0.949 µM, first compound 0.001 µM) was 90.9%, the viability, T/C [13] was 95.6% and the viability, T/C [14] was 86%. The viability, T/C [15] was 95.8%, the viability, T/C [16] was 90.5% and the viability, T/C (second compound 3 µM, first compound 0.000316 µM) was 96.3%. For the same compound, the viability, T/C (second compound 3 µM, first compound 0.001 µM) was 103%, the viability, T/C [17] was 89.9% and the viability, T/C [18] was 84.8%. For the same compound, the viability, T/C [19] was 82% and the viability, T/C [20] was 81.6%.
For `Cn1ncnc1[C@H]1c2n[nH]c(=O)c3cc(F)cc(c23)N[C@@H]1c1ccc(F)cc1` + CNC(C)C(=O)NC1CN(S(=O)(=O)c2cccc(S(=O)(=O)N3CCC4CCC(C(=O)NC(c5ccccc5)c5ccccc5)N4C(=O)C(NC(=O)C(C)NC)C3)c2)CCC2CCC(C(=O)NC(c3ccccc3)c3ccccc3)N2C1=O, the IC50 (second compound 0.01 µM) was > 100 nM, the IC50 (second compound 0.0316 µM) was > 100 nM and the IC50 (second compound 0.1 µM) was 56.2 nM. It also gave an IC50 (second compound 0.316 µM) of 13.1 nM, an IC50 (second compound 1 µM) of 10 nM and a viability, T/C (second compound 0.01 µM, first compound 0.000316 µM) of 82.1%. For the same compound, the viability, T/C (second compound 0.01 µM, first compound 0.001 µM) was 82.3%, the viability, T/C [21] was 78.2% and the viability, T/C [22] was 79.6%. It also gave a viability, T/C [23] of 77.3%, a viability, T/C [24] of 63.1% and a viability, T/C (second compound 0.0316 µM, first compound 0.000316 µM) of 71%. For the same compound, the viability, T/C (second compound 0.0316 µM, first compound 0.001 µM) was 77.3%, the viability, T/C [25] was 71% and the viability, T/C [26] was 61.4%. It also gave a viability, T/C [27] of 56.1%, a viability, T/C [28] of 58.1% and a viability, T/C (second compound 0.1 µM, first compound 0.000316 µM) of 67.3%. The viability, T/C (second compound 0.1 µM, first compound 0.001 µM) was 67.4%, the viability, T/C [29] was 60.5% and the viability, T/C [30] was 55.8%. It also gave a viability, T/C [31] of 58.4%, a viability, T/C [32] of 44.7% and a viability, T/C (second compound 0.316 µM, first compound 0.000316 µM) of 56%. It also gave a viability, T/C (second compound 0.316 µM, first compound 0.001 µM) of 70.9%, a viability, T/C [33] of 59.2% and a viability, T/C [34] of 51.8%. For the same compound, the viability, T/C [35] was 44.4%, the viability, T/C [36] was 41% and the viability, T/C (second compound 1 µM, first compound 0.000316 µM) was 53.2%. For the same compound, the viability, T/C (second compound 1 µM, first compound 0.001 µM) was 63.7%, the viability, T/C [37] was 56.2% and the viability, T/C [38] was 42.4%. For the same compound, the viability, T/C [39] was 46.8% and the viability, T/C [40] was 44.1%.
With `O=C(c1ccc(F)c(F)c1Nc1ccc(I)cc1F)N1CC(O)([C@@H]2CCCCN2)C1` + CNC(C)C(=O)NC1CN(S(=O)(=O)c2cccc(S(=O)(=O)N3CCC4CCC(C(=O)NC(c5ccccc5)c5ccccc5)N4C(=O)C(NC(=O)C(C)NC)C3)c2)CCC2CCC(C(=O)NC(c3ccccc3)c3ccccc3)N2C1=O the IC50 (second compound 0.01 µM) was 594 nM, the IC50 (second compound 0.0316 µM) was 377 nM and the IC50 (second compound 0.1 µM) was 164 nM. It also gave an IC50 (second compound 0.316 µM) of 86.6 nM, an IC50 (second compound 1 µM) of 85.2 nM and a viability, T/C [21] of 82.4%. The viability, T/C [22] was 87.6%, the viability, T/C [23] was 79.8% and the viability, T/C [24] was 90.9%. The viability, T/C (second compound 0.01 µM, first compound 0.316 µM) was 66.9%, the viability, T/C (second compound 0.01 µM, first compound 1 µM) was 36% and the viability, T/C [25] was 84.2%. It also gave a viability, T/C [26] of 72.7%, a viability, T/C [27] of 67.9% and a viability, T/C [28] of 67.2%. The viability, T/C (second compound 0.0316 µM, first compound 0.316 µM) was 55.1%, the viability, T/C (second compound 0.0316 µM, first compound 1 µM) was 33% and the viability, T/C [29] was 59.7%. For the same compound, the viability, T/C [30] was 67.3%, the viability, T/C [31] was 67.5% and the viability, T/C [32] was 59.6%. For the same compound, the viability, T/C (second compound 0.1 µM, first compound 0.316 µM) was 37%, the viability, T/C (second compound 0.1 µM, first compound 1 µM) was 28.1% and the viability, T/C [33] was 62.5%. It also gave a viability, T/C [34] of 62.8%, a viability, T/C [35] of 54.6% and a viability, T/C [36] of 51.3%. It also gave a viability, T/C (second compound 0.316 µM, first compound 0.316 µM) of 30.1%, a viability, T/C (second compound 0.316 µM, first compound 1 µM) of 19.1% and a viability, T/C [37] of 56.9%. It also gave a viability, T/C [38] of 54.1%, a viability, T/C [39] of 54.3% and a viability, T/C [40] of 49.3%. It also gave a viability, T/C (second compound 1 µM, first compound 0.316 µM) of 27% and a viability, T/C (second compound 1 µM, first compound 1 µM) of 21.1%.
Work on `O=C(c1ccc(F)c(F)c1Nc1ccc(I)cc1F)N1CC(O)([C@@H]2CCCCN2)C1` + CCN1C(C(=O)NC23CCC(C(=O)O)(CC2)CC3)C(c2cccc(Cl)c2F)C2(C(=O)Nc3cc(Cl)ccc32)C12CCCCC2 yielded an IC50 (second compound 0.03 µM) of 552 nM, an IC50 (second compound 0.0949 µM) of 622 nM and an IC50 (second compound 0.3 µM) of 570 nM. For the same compound, the IC50 (second compound 0.949 µM) was 638 nM, the IC50 (second compound 3 µM) was 641 nM and the viability, T/C [1] was 100%. For the same compound, the viability, T/C [2] was 108%, the viability, T/C [3] was 97.2% and the viability, T/C [4] was 96.2%. It also gave a viability, T/C (second compound 0.03 µM, first compound 0.316 µM) of 65.6%, a viability, T/C (second compound 0.03 µM, first compound 1 µM) of 33.2% and a viability, T/C [5] of 105%. It also gave a viability, T/C [6] of 109%, a viability, T/C [7] of 107% and a viability, T/C [8] of 97.8%. The viability, T/C (second compound 0.0949 µM, first compound 0.316 µM) was 68.9%, the viability, T/C (second compound 0.0949 µM, first compound 1 µM) was 36.8% and the viability, T/C [9] was 107%. The viability, T/C [10] was 106%, the viability, T/C [11] was 112% and the viability, T/C [12] was 82.9%. For the same compound, the viability, T/C (second compound 0.3 µM, first compound 0.316 µM) was 68.8%, the viability, T/C (second compound 0.3 µM, first compound 1 µM) was 34.3% and the viability, T/C [13] was 102%. For the same compound, the viability, T/C [14] was 110%, the viability, T/C [15] was 106% and the viability, T/C [16] was 86.2%. It also gave a viability, T/C (second compound 0.949 µM, first compound 0.316 µM) of 63.5%, a viability, T/C (second compound 0.949 µM, first compound 1 µM) of 41.8% and a viability, T/C [17] of 99.5%. For the same compound, the viability, T/C [18] was 99.7%, the viability, T/C [19] was 100% and the viability, T/C [20] was 87.2%. It also gave a viability, T/C (second compound 3 µM, first compound 0.316 µM) of 69.2% and a viability, T/C (second compound 3 µM, first compound 1 µM) of 38.2%.
